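Assay format: 96-well plates, 48-hour exposure. GI50 = concentration required for 50% inhibition of growth.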 The source made the active and inactive calls. Rule as the data show it: active = GI50 up to about 1.1 µM and inactive = higher.
Assays:
Experiment in all cases: NCI anticancer screen, dose series, 48 h
ACHN = test system: ACHN
SK-OV-3 = test system: SK-OV-3
SNB-75 = test system: SNB-75
LOX IMVI = test system: LOX IMVI
M14 = test system: M14
IGROV-1 = test system: IGROV-1
SK-MEL-5 = test system: SK-MEL-5
HCT-116 = test system: HCT-116
SW-620 = test system: SW-620
HOP-62 = test system: HOP-62
SN12C = test system: SN12C
HCC 2998 = test system: HCC 2998
OVCAR-3 = test system: OVCAR-3
COLO 205 = test system: COLO 205
NCI-H23 = test system: NCI-H23
K562 = test system: K562
TK-10 = test system: TK-10
SR = test system: SR

Measured: GI50

C[C@]12Cc3conc3C(O)=C1CC[C@@H]1C2CC[C@@]2(C)C1CC[C@]2(C)O (some centres not stated)
inactive: ACHN 26.5 µM | SK-OV-3 24.3 µM | SNB-75 10.2 µM | LOX IMVI 1.79 µM | M14 16 µM | IGROV-1 19 µM | SK-MEL-5 13.6 µM | HCT-116 16.3 µM | SW-620 21.1 µM | HOP-62 22.9 µM | SN12C 33 µM | HCC 2998 21.1 µM | OVCAR-3 18.4 µM | COLO 205 20.4 µM | NCI-H23 19.5 µM | K562 3.97 µM | TK-10 24 µM

CCOc1ccc2c(c1)[n+]([O-])c(-c1ccc(Br)cc1)c(N)[n+]2[O-]
inactive: ACHN 47.2 µM | SK-OV-3 > 100 µM | SNB-75 > 100 µM | LOX IMVI > 100 µM | M14 49 µM | IGROV-1 67 µM | SK-MEL-5 20.8 µM | SW-620 > 100 µM | HOP-62 67.6 µM | SN12C 71 µM | HCC 2998 > 100 µM | OVCAR-3 48.1 µM | COLO 205 24.2 µM | NCI-H23 22.8 µM | K562 75.5 µM | TK-10 > 100 µM

O=C1OC(=O)C2C1C1C(c3ccccc3)=C(c3ccccc3)C2(O)C2C(=O)OC(=O)C12 (configuration not stated)
inactive: ACHN > 100 µM | SR 78.5 µM | SK-OV-3 > 100 µM | SNB-75 27.9 µM | M14 > 100 µM | IGROV-1 > 100 µM | HCT-116 54.8 µM | SW-620 80.7 µM | HOP-62 > 100 µM | SN12C 96.2 µM | HCC 2998 > 100 µM | OVCAR-3 > 100 µM | COLO 205 > 100 µM | NCI-H23 65.3 µM | K562 45.1 µM | TK-10 > 100 µM

CN(C)c1ccc(/C=N\N2C(=O)c3ccccc3C2=O)cc1
inactive: ACHN > 100 µM | SR > 100 µM | SNB-75 40.9 µM | LOX IMVI > 100 µM | M14 > 100 µM | IGROV-1 > 100 µM | SK-MEL-5 > 100 µM | HCT-116 > 100 µM | SW-620 > 100 µM | HOP-62 > 100 µM | SN12C > 100 µM | HCC 2998 > 100 µM | OVCAR-3 > 100 µM | NCI-H23 > 100 µM | K562 > 100 µM | TK-10 > 100 µM

CCOC(=O)/C(C(=O)c1ccccc1)=C1/NCCN1C
inactive: ACHN > 100 µM | SR > 100 µM | LOX IMVI > 100 µM | M14 > 100 µM | IGROV-1 > 100 µM | SK-MEL-5 > 100 µM | HCT-116 > 100 µM | SW-620 > 100 µM | HOP-62 > 100 µM | SN12C > 100 µM | HCC 2998 > 100 µM | OVCAR-3 > 100 µM | COLO 205 > 100 µM | NCI-H23 > 100 µM | K562 > 100 µM

Cc1[nH]c(O)nc1C(=O)c1ccc(-n2ccnc2)cc1
inactive: ACHN > 100 µM | SR > 100 µM | SK-OV-3 > 100 µM | SNB-75 > 100 µM | LOX IMVI > 100 µM | M14 > 100 µM | IGROV-1 > 100 µM | SK-MEL-5 > 100 µM | HCT-116 > 100 µM | SW-620 > 100 µM | HOP-62 > 100 µM | SN12C > 100 µM | HCC 2998 > 100 µM | OVCAR-3 > 100 µM | K562 > 100 µM

CC(C)(C)OC(=O)NCCc1cccc2c1oc1c(CCC(=O)O)cccc12
inactive: ACHN > 100 µM | SR > 100 µM | SK-OV-3 > 100 µM | SNB-75 95.9 µM | LOX IMVI > 100 µM | M14 > 100 µM | IGROV-1 > 100 µM | SK-MEL-5 > 100 µM | HCT-116 > 100 µM | SW-620 > 100 µM | SN12C > 100 µM | HCC 2998 > 100 µM | OVCAR-3 50.7 µM | COLO 205 > 100 µM | NCI-H23 > 100 µM | K562 > 100 µM | TK-10 > 100 µM

COC(=O)CCC(=O)CC(=O)C(=O)Nc1ccc(F)cc1
inactive: ACHN > 100 µM | SK-OV-3 > 100 µM | SNB-75 > 100 µM | LOX IMVI > 100 µM | M14 > 100 µM | IGROV-1 > 100 µM | SK-MEL-5 > 100 µM | HCT-116 > 100 µM | SW-620 > 100 µM | HOP-62 > 100 µM | SN12C > 100 µM | HCC 2998 > 100 µM | OVCAR-3 > 100 µM | COLO 205 > 100 µM | NCI-H23 > 100 µM | K562 > 100 µM | TK-10 > 100 µM

C[C@]12CCC3[C@@H](CC[C@@H]4c5nonc5CC[C@]34C)C1CCC2=O (some centres not stated)
inactive: ACHN 24.5 µM | SK-OV-3 36.7 µM | SNB-75 35.4 µM | LOX IMVI 19.6 µM | M14 18.3 µM | IGROV-1 40.6 µM | SK-MEL-5 16.9 µM | HCT-116 17 µM | SW-620 37.2 µM | HOP-62 40.6 µM | SN12C 21.5 µM | OVCAR-3 17.1 µM | COLO 205 16.9 µM | NCI-H23 24.5 µM | K562 29.4 µM | TK-10 29 µM

O=C1c2ccccc2C(=O)c2c(O)ccc(O)c21 [QUINIZARIN]
inactive: ACHN > 100 µM | SK-OV-3 > 100 µM | SNB-75 > 100 µM | LOX IMVI > 100 µM | M14 > 100 µM | IGROV-1 > 100 µM | SK-MEL-5 63.1 µM | HCT-116 > 100 µM | SW-620 93.8 µM | HOP-62 > 100 µM | SN12C > 100 µM | HCC 2998 81.1 µM | OVCAR-3 29.2 µM | COLO 205 > 100 µM | NCI-H23 > 100 µM | K562 > 100 µM | TK-10 > 100 µM

O=C(O)CN(c1ccc(F)cc1)S(=O)(=O)c1ccccc1
inactive: ACHN > 100 µM | SK-OV-3 > 100 µM | SNB-75 > 100 µM | LOX IMVI > 100 µM | M14 > 100 µM | IGROV-1 > 100 µM | SK-MEL-5 > 100 µM | SW-620 > 100 µM | SN12C > 100 µM | OVCAR-3 > 100 µM | COLO 205 > 100 µM | NCI-H23 > 100 µM | K562 > 100 µM | TK-10 > 100 µM

O=C1C[C@@H]2[C@@H](CCC23CCCC3)N1
inactive: ACHN > 100 µM | SK-OV-3 > 100 µM | SNB-75 > 100 µM | LOX IMVI > 100 µM | M14 > 100 µM | IGROV-1 > 100 µM | SK-MEL-5 > 100 µM | HCT-116 > 100 µM | SW-620 > 100 µM | HOP-62 > 100 µM | SN12C > 100 µM | HCC 2998 > 100 µM | OVCAR-3 > 100 µM | COLO 205 > 100 µM | NCI-H23 > 100 µM | K562 > 100 µM | TK-10 > 100 µM

COc1ccc2c(CCNC(=O)/C=C/c3ccccc3)c(C(C)=O)[nH]c2c1[N+](=O)[O-]
inactive: ACHN 50.4 µM | SR 7.28 µM | LOX IMVI 5.64 µM | M14 7.33 µM | IGROV-1 18.3 µM | HCT-116 13.7 µM | SW-620 5.38 µM | HOP-62 18.8 µM | SN12C 42.4 µM | HCC 2998 20 µM | OVCAR-3 10.1 µM | COLO 205 8.85 µM | NCI-H23 3.78 µM | K562 4.49 µM

O=C1c2ccccc2C(=O)c2c(O)c(O)cc(O)c21 [PURPURIN]
inactive: ACHN 27.4 µM | SK-OV-3 31.8 µM | SNB-75 85.9 µM | LOX IMVI 43.7 µM | M14 41.3 µM | IGROV-1 31.6 µM | SK-MEL-5 37.9 µM | HCT-116 24.5 µM | SW-620 40.1 µM | HOP-62 23.7 µM | SN12C 34.7 µM | HCC 2998 32.7 µM | OVCAR-3 22.4 µM | COLO 205 34 µM | NCI-H23 29.9 µM | K562 36.5 µM | TK-10 81.3 µM

Cc1c(C)n(COCCO)c2ncnc(N)c12
inactive: ACHN > 100 µM | SR > 100 µM | SK-OV-3 > 100 µM | SNB-75 > 100 µM | M14 > 100 µM | IGROV-1 > 100 µM | SK-MEL-5 > 100 µM | SW-620 > 100 µM | SN12C > 100 µM | HCC 2998 > 100 µM | OVCAR-3 > 100 µM | COLO 205 > 100 µM | NCI-H23 > 100 µM | K562 > 100 µM | TK-10 > 100 µM

O=S1(=O)NN=C(NCc2ccc(Cl)cc2)c2ccccc21
inactive: ACHN > 100 µM | LOX IMVI 69 µM | M14 74 µM | IGROV-1 > 100 µM | SK-MEL-5 > 100 µM | HCT-116 > 100 µM | SW-620 > 100 µM | SN12C > 100 µM | HCC 2998 > 100 µM | OVCAR-3 > 100 µM | COLO 205 > 100 µM | K562 38 µM

C=CC1=CSNN1
inactive: ACHN > 100 µM | SK-OV-3 > 100 µM | SNB-75 > 100 µM | LOX IMVI > 100 µM | M14 > 100 µM | IGROV-1 > 100 µM | SK-MEL-5 > 100 µM | SW-620 > 100 µM | HOP-62 > 100 µM | SN12C > 100 µM | HCC 2998 > 100 µM | OVCAR-3 > 100 µM | COLO 205 > 100 µM | NCI-H23 > 100 µM | K562 > 100 µM | TK-10 > 100 µM

Reference: ChEMBL document CHEMBL1201862, “PubChem BioAssay data set” (2004)
